The term pIC50 denotes −log10 of the IC50, conventionally taken in molar units.

The subject of one data set is AILNCaP14 cell line. As to the kind of experiment: Cell proliferation suppression test (crystal violet staining). The format is cell-based. As to the method: (§1) 5×10^3 cells of the LNCaP cell line, 4×10^4 cells of the AILNCaP14 cell line, and 6×10^4 cells of the AILNCaP15 cell line were each seeded on a 24-well plate to which 1 mL/well of medium was dispensed. […] After culturing each cell line for an additional two weeks, the status of cell proliferation was measured by cell staining (Bommi-Reddy et al. Proc Natl Acad Sci USA. 105: 16484-16489 (2008)) using crystal violet.
(§2) The final concentrations of alvocidib were set to be 0.125, 0.25, 0.5, and 1.0 uM.

The test system of a further data set is AILNCaP15 cell line. Described as above. The format is cell-based. As to the method:
as §1, §2

In data set [1] the test system is androgen receptor (AR) phosphorylation in AILNCaP14 cell line. The data set is described as follows: AR phosphorylation suppression test by immunoblotting. As to conditions: 0.25 uM, 1 to 4 days. The format is cell-based. On the technique in general: Immunoblotting shows a protein as a band on a membrane.
Protocol: (§3) After the culturing, each of 1×10^6 cells were washed with ice cooled PBS, and then treated with cell lysis buffer containing 8 M of urea, 20 mM of Tris hydrochloride (pH 7.4), 1 mM of EDTA, and protease inhibitor (Nacalai tesque, Cat no. 03969) and phosphatase inhibitor (Nacalai tesque, Cat no. 07575-51)—added 1.0% Triton X. The cell lysate was then subjected to high speed centrifugation (21,500 G) for 20 minutes at 4° C. The total amount of cell protein was quantified using a protein quantification reagent (Thermo Fisher Scientific, Cat no. 23227).
As a positive control, JQ1 (Cayman Chemical) was used.
Data set [2] relates to androgen receptor (AR) phosphorylation in AILNCaP15 cell line. The data set is described as above. The format is cell-based. As to conditions: 0.25 uM, 1 to 4 days.
Protocol: as §3
The subject of data set [3] is AR nuclear translocation in AILNCaP14 cell line. As to the kind of experiment: AR nuclear translocation suppression test using immunofluorescent staining. The format is cell-based. As to conditions: 0.25 μM, 4 days, vs DMSO control. On the procedure:
1×10^5 cells of the […]14 cell line were seeded on a 48-well plate to which 0.5 mL/well of medium was dispensed. After 3 days of culture under the conditions of 5% CO2 at 37° C., a DMSO solution of alvocidib was diluted with a medium so that the final concentration of alvocidib would be 0.25 μM and added to each well (final volume of 1.0 mL). As a control, alvocidib-free DMSO was similarly diluted and added. After culturing for 4 days, the cells were gently washed once with PBS, and immobilized by allowing 4% paraformaldehyde phosphate buffer to act on the cells for 15 minutes. After washing the cells gently twice with PBS, the cells were incubated for 15 minutes in a 4% PBST solution. The cells were further incubated for 15 minutes in a blocking reagent (DS Pharma Biomedical, Cat no. UK-B80), and the cells were then incubated overnight at 4° C. after adding an anti-AR antibody (Santa Cruz Biotechnology Inc., Cat no. sc-816). After washing the cells gently twice with PBS, the cells were incubated for 45 minutes at room temperature after adding a secondary antibody for immunofluorescent staining (Thermo Fisher Scientific, Cat no A-21206). After washing the cells gently twice with PBS, the cells were incubated for 10 minutes after adding DAPI (Nacalai tesque, Cat no. 11034-56). After washing the cells twice for 10 minutes with 1% PBS, signals were measured with a fluorescence microscope.

In data set [4] the test system is AILNCaP14 cell derived subcutaneous xenograft. As to the kind of experiment: Tumor proliferation suppression test using a subcutaneous xenograft mouse model. The format is in vivo. As to conditions: castrated NOD-SCID mice; 3 mg/kg intraperitoneally, three times every two days; vs saline negative control; p value=0.0497.
Protocol: 2×10^6 […] 14 cells were subjected to suspension culture for 4 days using a PrimeSurface® petri dish 90 mm (product code: MS-9090X) in a phenol red free RPMI 1640 medium containing activated carbon-treated 10% fetal bovine serum (csFBS). The cultured cells that were collected, mixed with 350 uL of Matrigel (Corning® Matrigel® Basement Membrane Matrix; catalog number: 356237), and then divided into 3 equal portions were transplanted subcutaneously into three sites on NOD-SCID mice (male, 8 mice, 6 to 8 weeks old) 7 days after castration. […] The tumor volume after three days (day 7) from the third administration was measured, and the ratio of increase in tumor volume was computed in accordance with the following equation. Ratio of increase in tumor volume=tumor volume on day 7/tumor volume on day 0 As a negative control group, the same test was conducted using saline in place of an agent administered solution, and the ratio of increase in tumor volume was computed.
Data set [5] is described as follows: Body weight in the xenograft mouse test. The format is in vivo. The settings on record: NOD-SCID mice; 3 mg/kg intraperitoneally, three times every two days. On the procedure:
2×10^6 […]14 cells were subjected to suspension culture for 4 days using a PrimeSurface® petri dish 90 mm (product code: MS-9090X) in a phenol red free RPMI 1640 medium containing activated carbon-treated 10% fetal bovine serum (csFBS). The cultured cells that were collected, mixed with 350 uL of Matrigel (Corning® Matrigel® Basement Membrane Matrix; catalog number: 356237), and then divided into 3 equal portions were transplanted subcutaneously into three sites on NOD-SCID mice (male, 8 mice, 6 to 8 weeks old) 7 days after castration. After the subcutaneous transplantation, the mice were continuously raised, and an aqueous saline solution of alvocidib hydrochloride (3 mg/kg) was administered intraperitoneally to the mice for a total of three times at an interval of once every two days from the point (day 0) where the volume of tumor formed subcutaneously reached 25 mm^3 or greater and 100 mm^3 or less at one or two of the tumor transplantation sites.

In another data set the test system is LNCaP cell line. As to the kind of experiment: Cell proliferation suppression test (crystal violet staining). The settings on record: final concentration of 0.625 uM or greater, two weeks culture. The format is cell-based. On the procedure:
as §1

Setting [6] is: 336 h, two weeks culture, crystal violet.
Setting [7] is: final concentration of 0.25 uM or greater.
Setting [8] is: final concentration of 5 uM, compared to LNCaP cell line.

pIC50: −log10 of the molar value.

Turning to `CN1CC[C@H](c2c(O)cc(O)c3c(=O)cc(-c4ccccc4Cl)oc23)[C@H](O)C1` [alvocidib, 2-(2-chlorophenyl)-5,7-dihydroxy-8-[(3S,4R)-3-hydroxy-1-methylpiperidin-4-yl]-4H-1-benzopyran-4-one], the pIC50 with AILNCaP14 cell line (setting [6]) and with AILNCaP15 cell line (setting [6]) was 6.60 to 6.90 in each case. Further, the “effect of suppressing cell proliferation” value in the data set on AILNCaP14 cell line (setting [7]) and in the data set on AILNCaP15 cell line (setting [7]) was “very potent effect of suppressing cell proliferation” in each case. In addition, the “phosphorylation of serine 81 of AR” value in data set [1] and in data set [2] was “suppressed over time” throughout. For the same compound, the “phosphorylation of serine 210 or serine 213 of AR” value in data set [1] and in data set [2] was “suppressed over time” throughout. In addition, the AR nuclear translocation result in data set [3] is recorded as “suppressed”. The “ratio of increase in tumor volume (day 7/day 0)” value in data set [4] is “decreased”. Further, the “decrease in the body weight of mice” value in data set [5] is “not observed”.

`CNC(=O)c1ccc(N2C(=S)N(c3ccc(C#N)c(C(F)(F)F)c3)C(=O)C2(C)C)cc1F` [enzalutamide]: the “suppression of cell proliferation” value in the data set on LNCaP cell line is on record as “clear suppression of cell proliferation”; with AILNCaP14 cell line (setting [8]), “significant weaker suppression of cell proliferation”; with AILNCaP15 cell line (setting [8]), “significant weaker suppression of cell proliferation”.

These data come from patent publication US20220071978A1, “CANCER TREATMENT PHARMACEUTICAL COMPOSITION CONTAINING CDK INHIBITOR” (SUMITOMO DAINIPPON PHARMA CO., LTD., priority 2018, published 2022).
